Measured values: PubChem BioAssay AID1963830 (Molecular Pharmacology Branch, DTP, NCI, 2024)

Tested on: 922993-354-T-J3-PDC complex spheroid viability
Experiment: Anticancer human tumor 922993-354-T-J3-PDC patient-derived endometrial carcinoma cell line growth inhibition [POLQ]
Details: for IC50: curve of first compound; for viability, T/C: stronger effect = lower value
Procedure, shortened: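 Patient-derived tumour cells were co-cultured with HUVEC and mesenchymal stem cells as multicellular spheroids at 37 °C. They were treated with POLQ inhibitors (novobiocin, ART-558, RP6685) alone or combined with other agents. Top concentrations were at or near clinical Cmax (otherwise 10 microM; SN-38 at 1 microM), decreasing in half-log steps.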

[1] = second compound 0.0316 µM, first compound 0.0316 µM
[2] = second compound 0.0316 µM, first compound 0.1 µM
[3] = second compound 0.0316 µM, first compound 0.316 µM
[4] = second compound 0.0316 µM, first compound 1 µM
[5] = second compound 0.0316 µM, first compound 3.16 µM
[6] = second compound 0.0316 µM, first compound 10 µM
[7] = second compound 0.1 µM, first compound 0.0316 µM
[8] = second compound 0.1 µM, first compound 0.1 µM
[9] = second compound 0.1 µM, first compound 0.316 µM
[10] = second compound 0.1 µM, first compound 1 µM
[11] = second compound 0.1 µM, first compound 3.16 µM
[12] = second compound 0.1 µM, first compound 10 µM
[13] = second compound 0.316 µM, first compound 0.0316 µM
[14] = second compound 0.316 µM, first compound 0.1 µM
[15] = second compound 0.316 µM, first compound 0.316 µM
[16] = second compound 0.316 µM, first compound 1 µM
[17] = second compound 0.316 µM, first compound 3.16 µM
[18] = second compound 0.316 µM, first compound 10 µM
[19] = second compound 1 µM, first compound 0.0316 µM
[20] = second compound 1 µM, first compound 0.1 µM
[21] = second compound 1 µM, first compound 0.316 µM
[22] = second compound 1 µM, first compound 1 µM
[23] = second compound 1 µM, first compound 3.16 µM
[24] = second compound 1 µM, first compound 10 µM
[25] = second compound 3.16 µM, first compound 0.0316 µM
[26] = second compound 3.16 µM, first compound 0.1 µM
[27] = second compound 3.16 µM, first compound 0.316 µM
[28] = second compound 3.16 µM, first compound 1 µM
[29] = second compound 3.16 µM, first compound 3.16 µM
[30] = second compound 3.16 µM, first compound 10 µM
[31] = second compound 10 µM, first compound 0.0316 µM
[32] = second compound 10 µM, first compound 0.1 µM
[33] = second compound 10 µM, first compound 0.316 µM
[34] = second compound 10 µM, first compound 1 µM
[35] = second compound 10 µM, first compound 3.16 µM
[36] = second compound 10 µM, first compound 10 µM
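Further: spheroids exposed to the agents for one week.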
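Wherever viability, T/C is given: 100% = DMSO vehicle control wells.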

In the case of `CNCc1ccc(-c2[nH]c3cc(F)cc4c3c2CCNC4=O)cc1` + Cc1cccc(N(C)C(=O)C2C(O)CCN2c2nc(C)cc(C(F)(F)F)c2C#N)c1, the IC50 (second compound 0.0316 µM) is reported as > 10 µM, the IC50 (second compound 0.1 µM) is reported as > 10 µM and the IC50 (second compound 0.316 µM) is reported as > 10 µM. For the same compound, the IC50 (second compound 1 µM) was > 10 µM, the IC50 (second compound 3.16 µM) was > 10 µM and the IC50 (second compound 10 µM) was 8.53 µM. It also gave a viability, T/C [1] of 103%, a viability, T/C [2] of 101% and a viability, T/C [3] of 104%. For the same compound, the viability, T/C [4] was 99.5%, the viability, T/C [5] was 89.7% and the viability, T/C [6] was 82.9%. The viability, T/C [7] was 105%, the viability, T/C [8] was 101% and the viability, T/C [9] was 100%. For the same compound, the viability, T/C [10] was 107%, the viability, T/C [11] was 89.5% and the viability, T/C [12] was 90%. The viability, T/C [13] was 110%, the viability, T/C [14] was 105% and the viability, T/C [15] was 96.3%. The viability, T/C [16] was 97.4%, the viability, T/C [17] was 92.3% and the viability, T/C [18] was 86.7%. For the same compound, the viability, T/C [19] was 110%, the viability, T/C [20] was 100% and the viability, T/C [21] was 108%. The viability, T/C [22] was 90.8%, the viability, T/C [23] was 94.6% and the viability, T/C [24] was 90.6%. The viability, T/C [25] was 105%, the viability, T/C [26] was 104% and the viability, T/C [27] was 97%. For the same compound, the viability, T/C [28] was 90.8%, the viability, T/C [29] was 97.7% and the viability, T/C [30] was 82.8%. It also gave a viability, T/C [31] of 105%, a viability, T/C [32] of 101% and a viability, T/C [33] of 106%. For the same compound, the viability, T/C [34] was 87.8%, the viability, T/C [35] was 84.7% and the viability, T/C [36] was 44.1%.
Work on `COc1cc(C2c3cc4c(cc3C(OC3OC5COC(C)OC5C(O)C3O)C3COC(=O)C23)OCO4)cc(OC)c1O` (stereo unspecified) + Cc1cccc(N(C)C(=O)C2C(O)CCN2c2nc(C)cc(C(F)(F)F)c2C#N)c1 yielded an IC50 (second compound 0.0316 µM) of 8.07 µM, an IC50 (second compound 0.1 µM) of 6.05 µM and an IC50 (second compound 0.316 µM) of 8.24 µM. The IC50 (second compound 1 µM) was 8.49 µM, the IC50 (second compound 3.16 µM) was 6.33 µM and the IC50 (second compound 10 µM) was 1.72 µM. The viability, T/C [1] was 101%, the viability, T/C [2] was 90% and the viability, T/C [3] was 91.2%. The viability, T/C [4] was 93.2%, the viability, T/C [5] was 89.8% and the viability, T/C [6] was 40.9%. For the same compound, the viability, T/C [7] was 101%, the viability, T/C [8] was 98.9% and the viability, T/C [9] was 95.9%. For the same compound, the viability, T/C [10] was 96.3%, the viability, T/C [11] was 68.9% and the viability, T/C [12] was 35.3%. The viability, T/C [13] was 112%, the viability, T/C [14] was 102% and the viability, T/C [15] was 99.5%. The viability, T/C [16] was 93.4%, the viability, T/C [17] was 80.8% and the viability, T/C [18] was 43.3%. For the same compound, the viability, T/C [19] was 92.2%, the viability, T/C [20] was 98.8% and the viability, T/C [21] was 96.3%. The viability, T/C [22] was 88.5%, the viability, T/C [23] was 76.5% and the viability, T/C [24] was 45.6%. The viability, T/C [25] was 102%, the viability, T/C [26] was 95.8% and the viability, T/C [27] was 89.9%. It also gave a viability, T/C [28] of 86%, a viability, T/C [29] of 74.9% and a viability, T/C [30] of 34.8%. For the same compound, the viability, T/C [31] was 100%, the viability, T/C [32] was 79.9% and the viability, T/C [33] was 92.1%. It also gave a viability, T/C [34] of 65.6%, a viability, T/C [35] of 32.1% and a viability, T/C [36] of 21.6%.
Compound `CCc1c2c(nc3ccc(O)cc13)-c1cc3c(c(=O)n1C2)COC(=O)[C@]3(O)CC` + COC1C(OC(N)=O)C(O)C(Oc2ccc3c(O)c(NC(=O)c4ccc(O)c(CC=C(C)C)c4)c(=O)oc3c2C)OC1(C)C has an IC50 (second compound 0.0316 µM) of 0.00629 µM, an IC50 (second compound 0.1 µM) of 0.0082 µM and an IC50 (second compound 0.316 µM) of 0.00819 µM. For the same compound, the IC50 (second compound 1 µM) was 0.00748 µM, the IC50 (second compound 3.16 µM) was 0.00704 µM and the IC50 (second compound 10 µM) was 0.00752 µM. For the same compound, the viability, T/C (second compound 0.0316 µM, first compound 0.00316 µM) was 81.4%, the viability, T/C (second compound 0.0316 µM, first compound 0.01 µM) was 28.9% and the viability, T/C [1] was 14.3%. The viability, T/C [2] was 11.3%, the viability, T/C [3] was 13.4% and the viability, T/C [4] was 15.7%. It also gave a viability, T/C (second compound 0.1 µM, first compound 0.00316 µM) of 85.7%, a viability, T/C (second compound 0.1 µM, first compound 0.01 µM) of 42.6% and a viability, T/C [7] of 14.8%. The viability, T/C [8] was 12.7%, the viability, T/C [9] was 12.1% and the viability, T/C [10] was 17.8%. It also gave a viability, T/C (second compound 0.316 µM, first compound 0.00316 µM) of 85.5%, a viability, T/C (second compound 0.316 µM, first compound 0.01 µM) of 42.5% and a viability, T/C [13] of 12%. It also gave a viability, T/C [14] of 11.8%, a viability, T/C [15] of 11.8% and a viability, T/C [16] of 19.4%. For the same compound, the viability, T/C (second compound 1 µM, first compound 0.00316 µM) was 85.6%, the viability, T/C (second compound 1 µM, first compound 0.01 µM) was 37.9% and the viability, T/C [19] was 11.6%. The viability, T/C [20] was 9.81%, the viability, T/C [21] was 12.3% and the viability, T/C [22] was 16.5%. It also gave a viability, T/C (second compound 3.16 µM, first compound 0.00316 µM) of 76.3%, a viability, T/C (second compound 3.16 µM, first compound 0.01 µM) of 38.5% and a viability, T/C [25] of 15.2%. For the same compound, the viability, T/C [26] was 11.2%, the viability, T/C [27] was 14.2% and the viability, T/C [28] was 19.2%. It also gave a viability, T/C (second compound 10 µM, first compound 0.00316 µM) of 83.8%, a viability, T/C (second compound 10 µM, first compound 0.01 µM) of 38.8% and a viability, T/C [31] of 10%. It also gave a viability, T/C [32] of 10.3%, a viability, T/C [33] of 13.1% and a viability, T/C [34] of 17%.
